Several values for one entry are separate records, joined by “and”; a condition that tells them apart may be missing. Equal entries are not always repeated. Entries after “also recorded” stand apart in the source; their conditions may differ. Bounds are passed on as bounds.

In one data set the test system is SK-Hep. Kind of data set: effect of EB1089 on hepatoma cell line SK-Hep. To be noted: day 5, 5% charcoal treated media, repeated experiments. The arrangement: unit not given here. It counts as cell-based. The text has this: (§1) (All experiments carried out in 5% charcoal treated media. All day 5. Successive lines of results for a particular cell line are the results for repeated experiment)

The subject of the next data set is Morris. In words: effect of EB1089 on hepatoma cell line Morris. It counts as cell-based. Set-up: unit not given here. The note with it: day 5, 5% charcoal treated media, repeated experiments.
Text: as §1

The test system of data set [1] is human colon cancer cells LoVo. In words: in vitro growth of human colon cancer cells LoVo. It counts as cell-based. To be noted: treated for 10 days. On the procedure: (§2) Results are % of control ±SEM
(§3) LoVo cells were treated for 10 days, while HepG2 cells were treated for 5 days, with D3 or EB1089.

Another data set concerns Hep 1-6. In words: effect of EB1089 on hepatoma cell line Hep 1-6. In kind it is cell-based. Set-up: unit not given here. To be noted: day 5, 5% charcoal treated media, repeated experiments.
Text: as §1

In a further data set the test system is NovoKoff. In words: effect of EB1089 on hepatoma cell line NovoKoff. The arrangement: unit not given here. The note with it: day 5, 5% charcoal treated media, repeated experiments. In kind it is cell-based.
Text: as §1

A further data set concerns PCL. Kind of data set: effect of EB1089 on hepatoma cell line PCL. It counts as cell-based. Set-up: unit not given here. The note with it: day 5, 5% charcoal treated media, repeated experiments.
Text: as §1

Data set [2] concerns human hepatoma cell line, Hep G2. Kind of data set: in vitro growth of human hepatoma cell line Hep G2 (thymidine uptake). It counts as cell-based. The note with it: for % of control ±SEM: treated for 5 days. Here is the method:
as §2, §3

The next data set concerns HTC. Kind of data set: effect of EB1089 on hepatoma cell line HTC. In kind it is cell-based. The arrangement: unit not given here. The note with it: day 5, 5% charcoal treated media, repeated experiments.
Text: as §1

For another data set, the system named is breast cancer. To be noted: topical, cited from earlier work.
Data set [3] is classed as physicochemical. Here is the method:
To illustrate the solubility of vitamin D compound in lipiodol radiolabelled vitamin D3 was dissolved in lipiodol at various amounts and the compared to the solubility of radiolabelled vitamin D3.

Data set [4] concerns liver cancers (hepatoma or colorectal cancer metastases). Kind of data set: Phase 1 trial of hepatic artery infusion: tumour marker (CEA or AFP) response. To be noted: for patients with at least a limited response (fall in the rate of rise of tumour marker): hepatic artery infusion. In kind it is in vivo, human. The text has this: 2. To investigate the effects of such an infusion upon liver cancers by monitoring of tumour marker levels and their rate of rise. […] Regular assay of LFTs, UECs, and calcium and phosphate levels, together with AFP or CEA levels. CEA or AFP levels—looking for evidence of response of the tumours to treatment

The conditions of data set [5]: 2 mcg/day administered orally; cited from earlier work.
A short description of data set [6]: Phase 1 trial of hepatic artery infusion: safety, serum calcium. It counts as in vivo, human. The text has this:
Regular assay of LFTs, UECs, and calcium and phosphate levels, together with AFP or CEA levels.
Patients 3, 5 and 6 were initially given 2 mcg/day, and then four weeks of 5 mcg/week.
Patient 4 was hypercalcaemic due to a paraneoplastic phenomena prior to treatment, and was therefore given lower dosages.
Patient 7 was commenced on the same dosage regimen as patients 3, 5 and 6 but was withdrawn from the trial prior to starting 10 mcg/day due to progression of their disease.
Calcium levels—looking for the development of hypercalcaemia
UECs and LFTs—looking for unexpected effects upon hepatic and renal function.

A short description of data set [7]: pig model, intravenous versus hepatic arterial infusion, serum calcium. In kind it is in vivo, Female Landrace pigs. The note with it: for calcium levels: pig. The text has this:
Female Landrace pigs (minimal disease) of weight 15-50 kg.
This infusion was delivered for a one or two week period, after which the animal was not treated for 4 weeks to allow any induced hepatic enzymes to diminish. The animal was then “crossed over” those whose first infusion was via the hepatic artery had their pump connected to an intravenous catheter and vice versa.
Blood was taken regularly and assayed foe calcium levels, LFTs and UECs.

A further data set deals with human hepatoma. To be noted: cited from earlier work.

For `C=C1/C(=C\C=C2/CCC[C@]3(C)[C@@H]([C@H](C)/C=C/C=C/C(O)(CC)CC)CC[C@@H]23)C[C@@H](O)C[C@@H]1O` [EB1089, 1 α.25 (OH)2 22.24 diene 24.26.27 trihomo D3], the “effect on hepatoma cell line” value in the data set on SK-Hep (10^8 M) was 63.1 ± 16.2 and 71.3 ± 11.8 and 83.1 ± 4.2 and 95.6 ± 12.2; in the data set on SK-Hep (10^9 M), 52.1 ± 8.8 and 61.6 ± 12.2 and 88.4 ± 4.1 and 103.1 ± 12.4; in the data set with SK-Hep (10^11 M) it was 82 ± 9.2 and 78.8 ± 11.5 and 118.3 ± 26.4 and 66.9 ± 36.9; in the data set on SK-Hep (10^-10 M), 52.1 ± 8.6 and 61.1 ± 16.6 and 91.0 ± 4.5 and 103.8 ± 11.7; with Morris (10^7 M), 136.0 ± 12.5 and 80.1 ± 5.2; with Morris (10^8 M) it was 134.0 ± 13.3 and 83.3 ± 4.7. The “effect on hepatoma cell line” value with Morris (10^9 M) was 117.8 ± 11.7 and 79.1 ± 4.9; in the data set with Morris (10^10 M), 118.0 ± 11.9 and 88.3 ± 3.9; in the data set with Morris (10^-11 M) it was 118.0 ± 14.3 and 90.8 ± 5.9; with Hep 1-6 (Hep 1-6, 10^8 M) it was 63.9 ± 7.0 and 113.4 ± 5.6; in the data set on Hep 1-6 (Hep 1-6, 10^9 M) it was 78.1 ± 11.4 and 106.7 ± 5.4; in the data set on Hep 1-6 (Hep 1-6, 10^11 M), 103.4 ± 9.2 and 98.1 ± 4.3. Moreover, the “effect on hepatoma cell line” value was 110.8 ± 13.8 and 103.5 ± 4.5 in the data set on Hep 1-6 (Hep 1-6, 10^-10 M); 91.5 ± 14.5 and 84.6 ± 17.0 in the data set on NovoKoff (10^7 M); 106.0 ± 18.1 and 79.0 ± 18.4 in the data set with NovoKoff (10^8 M); 103.7 ± 13.8 and 95.4 ± 18.2 in the data set on NovoKoff (10^9 M); 131.0 ± 15.9 and 92.6 ± 17.6 with NovoKoff (10^11 M); 116.3 ± 22.1 and 94.0 ± 21.4 in the data set on NovoKoff (10^-10 M). Besides, the “effect on hepatoma cell line” value was 98.5 ± 4.5 and 106.0 ± 9.1 with PCL (10^7 M); 101.6 ± 11.5 and 105.2 ± 4.9 in the data set on PCL (10^8 M); 98.3 ± 6.5 and 95.1 ± 3.3 in the data set with PCL (10^9 M); 92.5 ± 6.6 and 100.1 ± 2.1 in the data set on PCL (10^10 M); 102.5 ± 10.0 and 95.9 ± 2.9 in the data set on PCL (10^11 M); 95.3 ± 17.7 and 57.9 ± 7.2 in the data set on HTC (10^7 M). In addition, the “effect on hepatoma cell line” value with HTC (10^8 M) was 86.9 ± 15.0 and 63.9 ± 12.5; with HTC (10^9 M) it was 100.4 ± 15.4 and 97.4 ± 13.8; in the data set with HTC (10^11 M), 98.8 ± 15.5 and 95.9 ± 13.0; in the data set with HTC (10^-10 M), 113.0 ± 22.1 and 107.8 ± 12.7. Also, the “% of control ±SEM” value in data set [1] (10^−7 M) is recorded as 40.5 ± 10.7 % of control; in [1] (10^−8 M), 51.0 ± 10.3 % of control; in data set [1] (10^−9 M) it was 73.3 ± 11.7 % of control; in data set [1] (10^−10 M) it was 55.3 ± 13.7 % of control; in data set [1] (10^−11 M), 64.7 ± 12.7 % of control; in data set [2] (HepG2, 10^−7 M), 11.2 ± 2.7 % of control. For the same compound, the “% of control ±SEM” value in data set [2] (HepG2, 10^−8 M) is given as 13.1 ± 2.8 % of control; in data set [2] (HepG2, 10^−9 M), 13.2 ± 2.7 % of control; in [2] (HepG2, 10^−10 M), 49.1 ± 2.9 % of control; in [2] (HepG2, 10^−11 M), 41.7 ± 3.6 % of control.

Regarding `C=C1/C(=C\C=C2/CCC[C@]3(C)[C@@H]([C@H](C)/C=C/[C@@H](O)C4CC4)CC[C@@H]23)C[C@@H](O)C[C@@H]1O` [Calcipotriol, calcipotriol], in the data set with breast cancer (of the 19 patients treated), the “patients with a minimal response” value was 1 patients and the “patients with a significant response” value is 3 patients. The “patients who became hypercalcaemic during treatment” value in the data set on breast cancer is reported as 2 of the 19 patients.

Take `C=C1CC[C@H](O)C/C1=C/C=C1\CCC[C@]2(C)[C@@H]([C@H](C)CCCC(C)C)CC[C@@H]12` [vitamin D3, cholecalciferol]: the “solubility in lipiodol compared with aqueous medium” value in data set [3] was “substantially more soluble in lipiodol”. In addition, the “patients with at least a limited response (fall in the rate of rise of tumour marker)” value in [4] is 4 of 7 patients.

What is called inhibition of growth is the drop in the measured response relative to a control, in per cent. `C=C1/C(=C\C=C2/CCC[C@]3(C)[C@@H]([C@H](C)CCCC(C)(C)O)CC[C@@H]23)C[C@@H](O)C[C@@H]1O` [1.25(OH)2D3, 1.25-dihydroxycholecalciferol] gave an amount readily dissolved in [3] (in 1 ml lipiodol) of no less than 2 mg. Also, the “hypercalcaemia, share of patients” value in data set [5] is listed as 50 % of patients. Besides, the “% of control ±SEM” value in data set [1] (10^−7 M) is recorded as 34.2 ± 3.8 % of control; in data set [1] (10^−8 M), 53.1 ± 5.0 % of control; in data set [1] (10^−9 M), 74.2 ± 6.8 % of control; in data set [1] (10^−10 M), 96.5 ± 12.9 % of control; in data set [1] (10^−11 M), 127.4 ± 7.1 % of control; in data set [2] (HepG2, 10^−7 M) it was 7.1 ± 6.3 % of control. Also, the “% of control ±SEM” value in data set [2] (HepG2, 10^−8 M) was 8.6 ± 6.3 % of control; in data set [2] (HepG2, 10^−9 M) it was 13.8 ± 6.4 % of control; in data set [2] (HepG2, 10^−10 M) it was 56.6 ± 6.7 % of control; in data set [2] (HepG2, 10^−11 M), 105.6 ± 6.6 % of control. Besides, the “patients with at least a limited response (fall in the rate of rise of tumour marker)” value in data set [4] is on record as 4 of 7 patients. The tumour marker level result in data set [4] (patient 1) was “dramatically increased at the onset of treatment but this was followed by an equally dramatic fall in the level”; in [4] (patient 2), “levelling off of the rate of rise with time”; in data set [4] (patient 3), “dramatic fall in marker level initially, but later this resumed it rise”. Also, in data set [4] (patient 7), the “rate of rise of CEA levels” value is reported as “appears to have slowed somewhat”. Also, the “CEA levels rate of rise” value in data set [4] (patients 5 and 6) is “did not appear to have any response to treatment”. Further, in [6] (hepatic arterial infusion, 15 mcg/day), the hypercalcaemia developed entry is reported as “two out of three patients”. The “derangement of hepatic or renal function” value in data set [6] (hepatic artery infusion, seven patients) is recorded as “Nor did any patient experience any derangement of hepatic or renal function”. In addition, the “unexpected adverse reaction or side effect to the infusion” value in data set [6] (hepatic artery infusion, seven patients, listed as 1.25(OH)D3) was “No patient suffered any unexpected adverse reaction or side effect; also recorded: safe and without unexpected side effects”. Further, the “dose administered without any observable systemic toxicity” value in [6] (intraarterially to the liver, patients) is reported as “at least 10 mcg/day”. Moreover, the calcium level entry in data set [6] (patient with pre existing hypercalcaemia (FIG. 3)) is given as “did not rise with treatment”. The hypercalcaemia during treatment result in data set [6] (patients 1 and 2, lower doses) is “Neither patients 1 nor 2 became hypercalcaemic”. Besides, the inhibition of growth entry in data set [2] (Hep G2, 10^−11M) is on record as “considerably less effective”; in [2] (Hep G2, reduction in thymidine uptake, dose dependent (FIG. 1)), 95%. For the same compound, the calcium levels result in [7] (hepatic arterial infusion, similar dosage, listed as 1.25(OH)D3) is listed as “does not affect calcium levels; also recorded: does not produce the hypercalcaemia”; in data set [7] (intravenous infusion), “results in hypercalcaemia”. Also, in data set [7] (pigs, either route), the “LFTs and UECs” value is given as “normal in all animals throughout”. Also, the unexpected reaction entry in data set [7] (pigs, either route) is “No pig suffered any unexpected reaction”.

For the compound `CC/C(=C(\c1ccccc1)c1ccc(OCCN(C)C)cc1)c1ccccc1` [Tamoxifen], the survival entry in the data set on human hepatoma is “significantly, but modestly, improve survival”.
